Source: publication PMC10372922 (Acta Pharmaceutica Sinica. B, 2023)
pKd: −log10 of the molar value.

Target: T1, TGF-β receptor type-1 (TGFβR1) (Homo sapiens, UniProt P36897)
T1 sequence (P36897 200-503 limits assumed): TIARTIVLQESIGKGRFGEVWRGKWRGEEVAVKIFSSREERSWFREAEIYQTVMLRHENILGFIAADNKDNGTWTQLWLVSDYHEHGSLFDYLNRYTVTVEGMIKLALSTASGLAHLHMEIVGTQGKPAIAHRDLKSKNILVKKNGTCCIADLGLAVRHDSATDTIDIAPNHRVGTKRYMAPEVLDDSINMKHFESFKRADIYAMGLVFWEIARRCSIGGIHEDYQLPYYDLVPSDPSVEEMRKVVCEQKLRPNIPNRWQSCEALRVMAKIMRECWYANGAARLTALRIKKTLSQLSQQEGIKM
Experiment: SPR
Format: binding

CC(=O)O[C@@H]1C[C@H](O)[C@@]23COC(O)C1(C)[C@@H]2C[C@@H](O)[C@@]1(C)[C@@H]2C(=O)C[C@@H](c4ccoc4)[C@]2(C)[C@@H](OC(C)=O)C(=O)[C@@H]13 (stereo partly shown) [ITSN, Isotoosendanin]
pKd: 4.62
